Experimental data taken from patent publication US20130183257A1, “COMPOSITIONS AND METHODS FOR IMPROVING SKIN APPEARANCE” (SYTHEON LTD., priority 2009, published 2013).
Marks after values point to notes of the source that are not given here.

Assay: Solubility study of solid ingredients in DOI and co-solvent
Assay type: physicochemical
Description: Noting the surprising ease with which the various phases incorporating the DOI were prepared, a study was conducted to evaluate whether the DOI was acting as or solvent for or aiding in the solubility of certain of the solid ingredients with which it was combined. In this particular evaluation, the solubility of two solid sunscreen actives, butyl methoxydibenzoylmethane (avobenzone) and benzophenone-3 (“BP3”), and another solid cosmetic active, hexylresorcinol (“HR”) were evaluated in DOI. Additionally, the solubility of avobenzone was further evaluated in C12-C15 alkylbenzoate (“AB”) and in the combination of DOI and C12-C15 alkylbenzoate (70:30)—avobenzone being the sunscreen active and C12-C15 alkylbenzoate a co-solvent of the Sunscreen Formulation of Example 5C above. Each solution was prepared by warming 10 grams of the solvents to ˜45° C., adding the avobenzone and stirring the mixture for at least 20 min to make sure the all of the solid is solubilized. The solutions were then allowed to stand at room temp (˜25 C) and then visually examined for signs of crystal formation at 18 hours and 24 hours. Percent solubility was then calculated.

[1] = room temp (~25 C), visual examination

Solubility of Avobenzone in the solvent (dissolved at ~45° C., standing at room temp (~25 C)): 23%*
Avobenzone crystal formation, 18 hours [1]: yes
Avobenzone crystal formation, 24 hours [1]: yes
Substance: C12-C15 alkylbenzoate [AB]
